{
  "source": "PubChem BioAssay (NCI)",
  "assay_in_all_cases": "NCI tumour cell line growth inhibition, 48 h",
  "key": {"LXFL 529 NSCLC": {"system": "LXFL 529 NSCLC"}, "DMS 114 small cell lung": {"system": "DMS 114 small cell lung"}, "SNB-78 CNS": {"system": "SNB-78 CNS"}, "HOP-18 NSCLC": {"system": "HOP-18 NSCLC"}, "KM20L2 colon": {"system": "KM20L2 colon"}, "XF 498 CNS": {"system": "XF 498 CNS"}, "P388/ADR leukemia": {"system": "P388/ADR leukemia"}, "SN12K1 renal": {"system": "SN12K1 renal"}, "P388 leukemia": {"system": "P388 leukemia"}},
  "note": "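These data come from cells grown in 96-well plates and exposed to compound for 48 hours at five concentrations. TGI denotes the concentration required for complete inhibition of growth.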",
  "data": [
    {"molecule": "CCCC(=O)OCC(O)CO", "note": "(stereo unspecified)", "values": [
      {"measurement": "TGI", "setting": "LXFL 529 NSCLC", "value": "> 5000", "unit": "µM"},
      {"measurement": "TGI", "setting": "DMS 114 small cell lung", "value": "> 5000", "unit": "µM"},
      {"measurement": "TGI", "setting": "SNB-78 CNS", "value": "> 5000", "unit": "µM"},
      {"measurement": "TGI", "setting": "HOP-18 NSCLC", "value": "> 5000", "unit": "µM"}
    ]},
    {"molecule": "C[C@H](O)C(=O)SC[C@H](NC(=O)CC[C@@H](N)C(=O)O)C(=O)NCC(=O)O", "values": [
      {"measurement": "TGI", "setting": "KM20L2 colon", "value": "> 100", "unit": "µM"},
      {"measurement": "TGI", "setting": "LXFL 529 NSCLC", "value": "> 100", "unit": "µM"},
      {"measurement": "TGI", "setting": "DMS 114 small cell lung", "value": "> 100", "unit": "µM"}
    ]},
    {"molecule": "O=C(/N=C/c1c(O)c2ccccc2oc1=O)NC1CCCCC1", "values": [
      {"measurement": "TGI", "setting": "KM20L2 colon", "value": "> 100", "unit": "µM"},
      {"measurement": "TGI", "setting": "LXFL 529 NSCLC", "value": "> 100", "unit": "µM"},
      {"measurement": "TGI", "setting": "DMS 114 small cell lung", "value": "> 100", "unit": "µM"},
      {"measurement": "TGI", "setting": "SNB-78 CNS", "value": "> 100", "unit": "µM"},
      {"measurement": "TGI", "setting": "XF 498 CNS", "value": 93, "unit": "µM"}
    ]},
    {"molecule": "COc1c2ccoc2c(S(=O)(=O)Nc2ccc(Cl)cc2)c2oc(C)cc(=O)c12", "values": [
      {"measurement": "TGI", "setting": "P388/ADR leukemia", "value": "> 100", "unit": "µM"},
      {"measurement": "TGI", "setting": "SN12K1 renal", "value": "> 100", "unit": "µM"},
      {"measurement": "TGI", "setting": "KM20L2 colon", "value": "> 100", "unit": "µM"},
      {"measurement": "TGI", "setting": "DMS 114 small cell lung", "value": "> 100", "unit": "µM"},
      {"measurement": "TGI", "setting": "SNB-78 CNS", "value": "> 100", "unit": "µM"},
      {"measurement": "TGI", "setting": "HOP-18 NSCLC", "value": "> 100", "unit": "µM"},
      {"measurement": "TGI", "setting": "XF 498 CNS", "value": "> 100", "unit": "µM"},
      {"measurement": "TGI", "setting": "P388 leukemia", "value": "> 100", "unit": "µM"}
    ]},
    {"molecule": "NC1=NS(=O)(=O)Nc2nc(-c3cccs3)[nH]c21", "values": [
      {"measurement": "TGI", "setting": "KM20L2 colon", "value": "> 100", "unit": "µM"},
      {"measurement": "TGI", "setting": "LXFL 529 NSCLC", "value": "> 100", "unit": "µM"},
      {"measurement": "TGI", "setting": "HOP-18 NSCLC", "value": "> 100", "unit": "µM"}
    ]},
    {"molecule": "FC(F)(F)C1=NC(=NNc2nnc(-c3ccccc3)c(-c3ccccc3)n2)N=C(C(F)(F)F)C1", "values": [
      {"measurement": "TGI", "setting": "P388/ADR leukemia", "value": "> 100", "unit": "µM"},
      {"measurement": "TGI", "setting": "SN12K1 renal", "value": "> 100", "unit": "µM"},
      {"measurement": "TGI", "setting": "KM20L2 colon", "value": "> 100", "unit": "µM"},
      {"measurement": "TGI", "setting": "DMS 114 small cell lung", "value": 28.2, "unit": "µM"},
      {"measurement": "TGI", "setting": "SNB-78 CNS", "value": "> 100", "unit": "µM"},
      {"measurement": "TGI", "setting": "HOP-18 NSCLC", "value": "> 100", "unit": "µM"},
      {"measurement": "TGI", "setting": "XF 498 CNS", "value": "> 88.5", "unit": "µM"},
      {"measurement": "TGI", "setting": "P388 leukemia", "value": "> 47.5", "unit": "µM"}
    ]}
  ]
}
